This is an account of results in PubChem BioAssay (NCI).

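Grown in 96-well plates, cells were treated for 48 hours with each compound at five concentrations. Insufficient inhibition: endpoint recorded as highest concentration tested. GI50: concentration for 50% inhibition of growth. TGI: concentration producing complete growth inhibition.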

Some test systems named below: DLD-1 colon; HOP-62 NSCLC; LXFL 529 NSCLC; NCI-H23 lung; SK-MEL-28 melanoma; UO-31 renal; EKVX NSCLC; BT-549 breast; PC-3 prostate; T-47D breast.
Common to all, as to experiment: DTP human tumour cell line panel, 48 h

By TGI is commonly meant the concentration at which net growth stops. Lower therefore signals more potent growth arrest. On to `Nc1c(Br)c(=O)[nH]c(=O)n1COCCO`, for which the TGI with DLD-1 colon, in the assay on HOP-62 NSCLC, with LXFL 529 NSCLC, in the assay with NCI-H23 lung, in the assay on SK-MEL-28 melanoma and in the assay on UO-31 renal was above 100 µM throughout.
As to `COCC1N=C(c2cc(OC)c(OC)c(OC)c2-c2cc3c(cc2C2OCCCO2)OCO3)O[C@H]1c1ccccc1` (stereo not given in full), the TGI in the assay with DLD-1 colon, with EKVX NSCLC, with HOP-62 NSCLC, with NCI-H23 lung, in the assay on SK-MEL-28 melanoma and with UO-31 renal was above 100 µM throughout.
Turning to `COc1ccc(C2=NN(C(=O)COc3ccc(Cl)cc3)C(O)(c3ccc(Cl)cc3)C2)cc1` (stereo not given), the TGI in the assay with DLD-1 colon, in the assay on HOP-62 NSCLC, in the assay on LXFL 529 NSCLC, with NCI-H23 lung, with SK-MEL-28 melanoma and with UO-31 renal was above 100 µM in each case.
On to `CC1CC2C(=O)N(c3ccccc3)C(=O)C2c2c1c1ccccc1n2Cc1ccccc1` (stereo not given), for which the TGI in the assay on DLD-1 colon, in the assay with EKVX NSCLC, with HOP-62 NSCLC, in the assay with LXFL 529 NSCLC and in the assay on UO-31 renal was above 100 µM throughout.
One may read the GI50 as the concentration at which growth is held to half of that of the control. For `Cn1ccc2c(c1=O)C(=O)c1nccc3c1c-2nc1ccccc13`, the GI50 in the assay on BT-549 breast is 2.12 µM; in the assay with EKVX NSCLC, 1.65 µM; in the assay with HOP-62 NSCLC, 1450 nM; in the assay on NCI-H23 lung, 1.27 µM; in the assay with PC-3 prostate, 1690 nM; in the assay on SK-MEL-28 melanoma it was 1.61 µM. Moreover, the values for the GI50 in the assay on T-47D breast and in the assay with UO-31 renal were 1800 nM and 1.55 µM, respectively. The TGI came to 4.77 µM in the assay on BT-549 breast; 3.16 µM in the assay on EKVX NSCLC; 2.81 µM in the assay with HOP-62 NSCLC; 2.8 µM in the assay on NCI-H23 lung; 3.64 µM with PC-3 prostate; 3.05 µM in the assay on SK-MEL-28 melanoma. The total growth inhibition concentration (TGI) came out at 3.74 µM with T-47D breast and 3.21 µM with UO-31 renal.
For the molecule `O=Cc1cn(Cc2cccc(Cl)c2)c2ccccc12`, the GI50 is 5.25 µM with BT-549 breast; 9.9 µM with EKVX NSCLC; 2570 nM in the assay with HOP-62 NSCLC; 9.33 µM with NCI-H23 lung; 5760 nM with PC-3 prostate; 15.9 µM with SK-MEL-28 melanoma. The GI50 in the assay with T-47D breast is 736 nM; in the assay on UO-31 renal, 5.49 µM. In addition, the TGI with BT-549 breast is 18.6 µM; in the assay with EKVX NSCLC, 25 µM; in the assay with HOP-62 NSCLC, 19.5 µM; with NCI-H23 lung, 26.9 µM; with PC-3 prostate it was 22.4 µM; with SK-MEL-28 melanoma it was 31.1 µM. Also, the TGI in the assay on T-47D breast was 13.4 µM; in the assay with UO-31 renal it was 21.1 µM.
In the case of `O=C(O)CCSCCCN1C(=O)c2ccccc2C1=O`, the TGI with EKVX NSCLC, in the assay with LXFL 529 NSCLC, in the assay with NCI-H23 lung, in the assay on SK-MEL-28 melanoma and with UO-31 renal was above 100 µM each time.
Take `NNC(=O)CCC(=O)Nc1cc(Cl)c(Cl)cc1Cl`: the TGI in the assay with DLD-1 colon, in the assay with HOP-62 NSCLC, in the assay with LXFL 529 NSCLC, with NCI-H23 lung, in the assay with SK-MEL-28 melanoma and in the assay on UO-31 renal was above 100 µM throughout.
With `C=C(C)[C@@H]1CC[C@]2(C(=O)NCCNCCNCCN)CC[C@]3(C)[C@H](CC[C@@H]4[C@@]5(C)CC[C@H](O)C(C)(C)[C@@H]5CC[C@]43C)[C@@H]12`, the GI50 in the assay with BT-549 breast is 15 µM; in the assay with EKVX NSCLC, 10.5 µM; in the assay on HOP-62 NSCLC it was 16500 nM; with NCI-H23 lung it was 14.7 µM; in the assay with PC-3 prostate, 2950 nM; in the assay on SK-MEL-28 melanoma, 16 µM. For the same molecule, the GI50 was 10900 nM with T-47D breast and 11.7 µM in the assay on UO-31 renal. For the same molecule, the TGI in the assay with BT-549 breast is 57.5 µM; in the assay on EKVX NSCLC, 26.6 µM; in the assay on HOP-62 NSCLC, 33.5 µM; in the assay with NCI-H23 lung, 32 µM; in the assay with PC-3 prostate, 18.6 µM; in the assay with SK-MEL-28 melanoma it was 30.6 µM. Moreover, the TGI was 32.3 µM in the assay on T-47D breast and 24.7 µM in the assay with UO-31 renal.
Consider `CCCCCCC#Cc1ccccc1C#CCO`, for which the GI50 is 17 µM in the assay on BT-549 breast; 21.9 µM in the assay with EKVX NSCLC; 22400 nM in the assay on HOP-62 NSCLC; 3.69 µM with NCI-H23 lung; 25400 nM with PC-3 prostate; 18 µM with SK-MEL-28 melanoma. In addition, the GI50 in the assay with T-47D breast was 16300 nM; with UO-31 renal it was 18.8 µM. Further, the total growth inhibition concentration (TGI) in the assay on BT-549 breast was 32.9 µM; in the assay on EKVX NSCLC, 50.6 µM; with HOP-62 NSCLC, 48.3 µM; in the assay with NCI-H23 lung, 9.74 µM; with PC-3 prostate, 95.2 µM; in the assay on SK-MEL-28 melanoma, 45.3 µM. Besides, the figures for the TGI in the assay on T-47D breast and in the assay with UO-31 renal were 35.1 µM and 38.6 µM, respectively.
As to `CC(C)[C@@]12C[C@@H](OC(=O)COC(=O)/C=C/c3ccccc3)[C@@](C)(O1)[C@@H]1CC[C@@H](C)[C@H]1[C@@H]2OC(=O)/C=C/c1ccccc1`, the GI50 in the assay on BT-549 breast was 0.508 µM; in the assay on EKVX NSCLC, above 100 µM; with HOP-62 NSCLC it was above 100000 nM; in the assay with NCI-H23 lung, above 100 µM; in the assay with PC-3 prostate, above 100000 nM; in the assay with SK-MEL-28 melanoma it was above 100 µM. The GI50 with T-47D breast is above 100000 nM; in the assay on UO-31 renal it was 0.0656 µM. Further, the TGI in the assay with BT-549 breast, in the assay on EKVX NSCLC, with HOP-62 NSCLC, in the assay on NCI-H23 lung, in the assay on PC-3 prostate and with SK-MEL-28 melanoma was above 100 µM throughout. For the same molecule, the values for the TGI in the assay on T-47D breast and in the assay with UO-31 renal were above 100 µM and 0.216 µM, respectively.
Turning to `Cc1nc2sc(C(=O)Nc3cccc4ccccc34)c(N)c2cc1C(=O)/C=C/c1ccccc1`, the GI50 in the assay with BT-549 breast was 0.413 µM; in the assay on EKVX NSCLC, 1.14 µM; with HOP-62 NSCLC, 311 nM; in the assay with NCI-H23 lung, 0.862 µM; in the assay with PC-3 prostate it was 282 nM; with SK-MEL-28 melanoma, 0.667 µM. Besides, the GI50 with T-47D breast was 724 nM; in the assay on UO-31 renal it was 0.351 µM. Also, the TGI with BT-549 breast was 1.92 µM; in the assay on EKVX NSCLC, above 36.7 µM; in the assay with HOP-62 NSCLC, 2.71 µM; with NCI-H23 lung it was 4.07 µM; in the assay with PC-3 prostate, 4.48 µM; in the assay with SK-MEL-28 melanoma, 5.91 µM. Moreover, the TGI in the assay on T-47D breast was above 11 µM; with UO-31 renal it was 1.03 µM.
